Where a name gives a salt, the structure may show the parent alone.

Tested on in one data set: not given
Test: not given
Conditions: not given
On to `C1=C(CSC2=NCc3ccccc3N2)N2C(=Nc3ccccc3C2c2ccccc2)S1` (stereo not drawn) (as salt: hydrochloride) [Example 43, 3-(((3,4-dihydroquinazolin-2-yl)thio)methyl)-5-phenyl-5H-thiazolo[2,3-b]quinazoline dihydrochloride], for which the melting point (as a rule, the temperature of the solid-liquid transition) lay within 184 to 190 °C.

For the compound `C1=C(CSC2=N[C@@H](c3ccccc3)[C@H](c3ccccc3)N2)N2Cc3ccccc3CN=C2S1` (as salt: hydrochloride) [Example 24, 3-((((4S,5S)-4,5-diphenyl-4,5-dihydro-1H-imidazol-2-yl)thio)methyl)-5,10-dihydrobenzo[e]thiazolo[3,2-a][1,3]diazepine dihydrochloride], the melting point was in the range of 178 to 185 °C. The same measure, in the same setting: as for `CN1CCCC1CSC1=NCC(Cc2ccccc2)N1` (stereo not drawn) (as salt: hydrochloride) [Example 53, 5-benzyl-2-(((1-methylpyrrolidin-2-yl)methyl)thio)-4,5-dihydro-1H-imidazole dihydrochloride], the figure is 70 to 80 °C; as for `c1ccc(CC2CN=C(SCCN3CCCCC3)N2)cc1` (stereo not drawn) (as salt: hydrochloride) [Example 50, 1-(2-((5-benzyl-4,5-dihydro-1H-imidazol-2-yl)thio)ethyl)piperidine dihydrochloride], 50 to 60 °C. Compound `COc1ccc(C[C@@H]2CN3C(CSC4=NCc5ccccc5N4)=CSC3=N2)cc1` (as salt: hydrochloride) [Example 124, (R)-3-(((1,4-dihydroquinazolin-2-yl)thio)methyl)-6-(4-methoxybenzyl)-5,6-dihydroimidazo[2,1-b]thiazole dihydrochloride] showed a melting point of 150 to 164 °C.

The compound `C1=C(CSC2=NCc3ccccc3N2)N2C[C@H](Cc3c[nH]c4ccccc34)N=C2S1` (as salt: hydrochloride) [Example 109, (S)-6-((1H-indol-3-yl)methyl)-3-(((1,4-dihydroquinazolin-2-yl)thio)methyl)-5,6-dihydroimidazo[2,1-b]thiazole dihydrochloride] displayed a melting point of 180 to 190 °C. Still for that read-out and setting: for `C1=C(CSC2=NCc3ccccc3N2)N2CC(c3ccccc3)N=C2S1` (stereo not drawn) (as salt: hydrochloride) [Example 120, 3-(((1,4-dihydroquinazolin-2-yl)thio)methyl)-6-phenyl-5,6-dihydroimidazo[2,1-b]thiazole dihydrochloride] the value was 185 to 190 °C; for `Fc1cccc2c1CN=C(SCC1=CSC3=NCc4ccccc4CN13)N2` (as salt: hydrochloride) [Example 23, 3-(((5-fluoro-1,4-dihydroquinazolin-2-yl)thio)methyl)-5,10-dihydrobenzo[e]thiazolo[3,2-a][1,3]diazepine dihydrochloride], > 240 °C. Same read-out and setting: as for `Ic1cc2c(c(I)c1I)NC(SCCN1CCCC1)=NC2` (as salt: hydrochloride) [Example 134, 6,7,8-triiodo-2-((2-(pyrrolidin-1-yl)ethyl)thio)-1,4-dihydroquinazoline dihydrochloride], the figure is 190 to 195 °C.

`COc1ccc(CC2(C)CN=C(SCC3=CSC4=NCc5ccccc5CN34)N2)cc1` (stereo not drawn) (as salt: hydrochloride) [Example 34, 3-(((5-(4-methoxybenzyl)-5-methyl-4,5-dihydro-1H-imidazol-2-yl)thio)methyl)-5,10-dihydrobenzo[e]thiazolo[3,2-a][1,3]diazepine dihydrochloride]: the melting point was 173 to 180 °C. Still for that read-out and setting: for `CC1(C)CN2C(CSC3=NCc4ccccc4CN3)=CSC2=N1` (as salt: hydrochloride) [Example 7, 3-(((2,5-dihydro-1H-benzo[e][1,3]diazepin-3-yl)thio)methyl)-6,6-dimethyl-5,6-dihydroimidazo[2,1-b]thiazole dihydrochloride] the value was 127 to 134 °C; for `C1=C(CSC2=NCC(C3CCCCC3)N2)N2Cc3ccccc3CN=C2S1` (stereo not drawn) (as salt: hydrochloride) [Example 26, 3-(((4-cyclohexyl-4,5-dihydro-1H-imidazol-2-yl)thio)methyl)-5,10-dihydrobenzo[e]thiazolo[3,2-a][1,3]diazepine dihydrochloride], 174 to 180 °C.

The compound `c1ccc(CC2CN=C(SCCN3CCCCCC3)N2)cc1` (stereo not drawn) (as salt: hydrochloride) [Example 58, 1-(2-((5-benzyl-4,5-dihydro-1H-imidazol-2-yl)thio)ethyl)azepane dihydrochloride] gave a melting point of 65 to 85 °C.

The test system of a further data set is peripheral blood mononuclear cells (PBMCs) from healthy donors. Nature of the data set: IFN production by R848-activated PBMCs, quantified with twINNE luciferase reporter cell line. The class given is cell-based, human. As to conditions: Homo sapiens, PBMC; read-out: IC50 of anti-inflammatory activity (IFN production by activated PBMCs). The method, boiled down:
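Functional IFN was quantified by luciferase output from the twINNE ISRE-reporter line after 24 h on conditioned supernatants. Those supernatants came from human PBMCs (4.10^6/mL) pre-treated with compound and then stimulated for 24 h with 5 μg/mL resiquimod. IC50s were fitted by nonlinear variable-slope regression.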
(In general: A reporter such as luciferase makes a cellular process visible.)
`Clc1ccc2c(c1)CN1C(CSC3=NCC(Cc4ccccc4)N3)=CSC1=N2` (stereo not drawn) [Example 20, 3-(((5-benzyl-4,5-dihydro-1H-imidazol-2-yl)thio)methyl)-7-chloro-5H-thiazolo[2,3-b]quinazoline dihydrochloride]: the IC50 (in general, the concentration needed to halve the response being measured) is ≤ 10 µM. As to `CC1(C)CN=C(SCC2=CSC3=Nc4ccccc4CN23)N1` [Example 5, 3-(((5,5-dimethyl-4,5-dihydro-1H-imidazol-2-yl)thio)methyl)-5H-thiazolo[2,3-b]quinazoline dihydrochloride], the IC50 fell in the range of 10 to 32 µM. On the same count and under the same terms, for `CC(C)(C)OC(=O)N1CC[C@H](SC2=NCCc3ccccc3N2)C1` [Example 198, tert-butyl (S)-3-((4,5-dihydro-1H-benzo[d][1,3]diazepin-2-yl)thio)pyrrolidine-1-carboxylate] the value was 10 to 32 µM; for `c1ccc2c(c1)CN=C(SCCCCN1CCCC1)NC2` [Example 171, 3-((4-(pyrrolidin-1-yl)butyl)thio)-2,5-dihydro-1H-benzo[e][1,3]diazepine dihydrochloride], > 32 µM; for `c1ccc2c(c1)CCN=C(SCc1ccncc1)N2` [Example 188, 2-((pyridin-4-ylmethyl)thio)-4,5-dihydro-1H-benzo[d][1,3]diazepine dihydrochloride], 10 to 32 µM.

With `CC1(C)CN2C(CSC3=NCc4ccccc4CN3)=CSC2=N1` [Example 7, 3-(((2,5-dihydro-1H-benzo[e][1,3]diazepin-3-yl)thio)methyl)-6,6-dimethyl-5,6-dihydroimidazo[2,1-b]thiazole dihydrochloride], the IC50 was > 32 µM. Take `c1ccc2c(c1)CN=C(SCCN1CCOCC1)N2` [Example 155, 4-(2-((1,4-dihydroquinazolin-2-yl)thio)ethyl)morpholine dihydrochloride]: the IC50 was > 32 µM. On the same count and under the same terms, for `CC1N=C(SCC2=CSC3=NC(Cc4ccccc4)CN23)Nc2ccccc21` (stereo not drawn) [Example 113, 6-benzyl-3-(((4-methyl-1,4-dihydroquinazolin-2-yl)thio)methyl)-5,6-dihydroimidazo[2,1-b]thiazole dihydrochloride] the value was ≤ 10 µM; for `CC1(C)c2ccccc2N=C2SC=C(CSC3=NCc4ccccc4N3)N21` [Example 95, 3-(((1,4-dihydroquinazolin-2-yl)thio)methyl)-5,5-dimethyl-5H-thiazolo[2,3-b]quinazoline dihydrochloride], ≤ 10 µM; for `C[C@H](CSC1=NCc2cc(Cl)ccc2N1)N1CCCC1` [Example 167, (R)-6-chloro-2-((2-(pyrrolidin-1-yl)propyl)thio)-1,4-dihydroquinazoline dihydrochloride], ≤ 10 µM.

In the case of `c1ccc2c(c1)CN(CCSC1=NCc3ccccc3N1)C2` [Example 71, 2-((2-(isoindolin-2-yl)ethyl)thio)-3,4-dihydroquinazoline dihydrochloride], the IC50 is 10 to 32 µM. Still for that read-out and setting: as for `Brc1ccc2c(c1)CN1C(CSC3=NCc4ccccc4N3)=CSC1=N2` [Example 69, 7-bromo-3-(((1,4-dihydroquinazolin-2-yl)thio)methyl)-5H-thiazolo[2,3-b]quinazoline dihydrochloride], the figure is ≤ 10 µM; as for `CN1CCC(SC2=NC(C)(C)c3ccccc3N2)C1` (stereo not drawn) [Example 98, 4,4-dimethyl-2-((1-methylpyrrolidin-3-yl)thio)-1,4-dihydroquinazoline dihydrochloride], > 32 µM. For the compound `COc1ccc(CC2(C)CN=C(SCCCCN3CCCC3)N2)cc1` (stereo not drawn) [Example 169, 5-(4-methoxybenzyl)-5-methyl-2-((4-(pyrrolidin-1-yl)butyl)thio)-4,5-dihydro-1H-imidazole dihydrochloride], the IC50 was > 32 µM. On the same count and under the same terms, as for `c1ccc2c(c1)CN=C(SCCN1[C@@H]3CCC[C@H]1CC3)N2` [Example 133, 2-((2-((1R,5S)-8-azabicyclo[3.2.1]octan-8-yl)ethyl)thio)-3,4-dihydroquinazoline dihydrochloride], the figure is ≤ 10 µM. On the same count and under the same terms, as for `CC(C)N1CCN=C1SCC1=CSC2=Nc3ccc(Cl)cc3CN12` [Example 48, 7-chloro-3-(((1-isopropyl-4,5-dihydro-1H-imidazol-2-yl)thio)methyl)-5H-thiazolo[2,3-b]quinazoline dihydrochloride], the figure is ≤ 10 µM; as for `Clc1cccc(C[C@H]2CN3C(CSC4=NCc5ccccc5N4)=CSC3=N2)c1` [Example 111, (S)-6-(3-chlorobenzyl)-3-(((1,4-dihydroquinazolin-2-yl)thio)methyl)-5,6-dihydroimidazo[2,1-b]thiazole dihydrochloride], ≤ 10 µM; as for `CN1CCC(CCSC2=NCc3cc(Cl)ccc3N2)C1` (stereo not drawn) [Example 177, 6-chloro-2-((2-(1-methylpyrrolidin-3-yl)ethyl)thio)-1,4-dihydroquinazoline dihydrochloride], ≤ 10 µM.

Turning to `Clc1ccc2c(c1)N=C1SC=C(CSC3=NCc4ccccc4N3)N1C2` [Example 42, 8-chloro-3-(((1,4-dihydroquinazolin-2-yl)thio)methyl)-5H-thiazolo[2,3-b]quinazoline dihydrochloride], the IC50 is ≤ 10 µM.

On to `Clc1ccc2c(c1)CN1C(CSC3=NCc4cc(Br)ccc4N3)=CSC1=N2` [Example 67, 3-(((6-bromo-1,4-dihydroquinazolin-2-yl)thio)methyl)-7-chloro-5H-thiazolo[2,3-b]quinazoline dihydrochloride], for which the IC50 is 10 to 32 µM.

For the origin of these results see US20240018125A1, “CYCLIC ISOTHIOUREA DERIVATIVES AS CXCR4 MODULATORS” (ERMIUM THERAPEUTICS, priority 2020, published 2024).
